Measurements taken from patent publication US7138361B2, “Herbicidal heterocycles” (E. I. du Pont de Nemours and Company, priority 2000, dated 2006).

How the values were obtained:
Format in all cases: in vivo
[1] = system: Surinam grass (Brachiaria decumbens); assay: Test B postemergence
Summary of the method: (§1)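 Visual injury scores, 0 = no effect to 100 = complete control, assigned against controls after 13 to 15 days in the greenhouse. Compounds formulated in non-phytotoxic solvent plus surfactant and applied to soil after planting (pre) or onto foliage of 1- to 4-leaf plants (post).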

[2] = system: barnyardgrass (Echinochloa crus-galli); assay: Test B postemergence
Summary of the method: as §1

[3] = system: blackgrass (Alopecurus myosuroides); assay: Test B postemergence
Summary of the method: as §1

[4] = system: cocklebur (Xanthium strumarium); assay: Test B postemergence
Summary of the method: as §1

corn (Zea mays) [5] = assay: Test B postemergence
Summary of the method: as §1

[6] = system: crabgrass (Digitaria sanguinalis); assay: Test B postemergence; conditions: Rate 125 g/ha, scale 0 to 100, 0 no effect, 100 complete control
Summary of the method: as §1

[7] = system: giant foxtail (Setaria faberii); assay: Test B postemergence; conditions: Rate 125 g/ha, scale 0 to 100, 0 no effect, 100 complete control
Summary of the method: as §1

[8] = system: lambsquarters (Chenopodium album); assay: Test B postemergence; conditions: Rate 125 g/ha, scale 0 to 100, 0 no effect, 100 complete control
Summary of the method: as §1

[9] = system: morning glory (Ipomoea hederacea); assay: Test B postemergence; conditions: Rate 125 g/ha, scale 0 to 100, 0 no effect, 100 complete control
Summary of the method: as §1

[10] = system: pigweed (Amaranthus retroflexus); assay: Test B postemergence; conditions: Rate 125 g/ha, scale 0 to 100, 0 no effect, 100 complete control
Summary of the method: as §1

[11] = system: velvetleaf (Abutilon theophrasti); assay: Test B postemergence; conditions: Rate 125 g/ha, scale 0 to 100, 0 no effect, 100 complete control
Summary of the method: as §1

[12] = system: wheat (Triticum aestivum); assay: Test B postemergence; conditions: Rate 125 g/ha, scale 0 to 100, 0 no effect, 100 complete control
Summary of the method: as §1

wild oat (Avena fatua) = assay: Test B postemergence; conditions: Rate 125 g/ha, scale 0 to 100, 0 no effect, 100 complete control
Summary of the method: as §1

[13] = system: Surinam grass (Brachiaria decumbens); assay: Test B preemergence
Summary of the method: as §1

[14] = system: barnyardgrass (Echinochloa crus-galli); assay: Test B preemergence
Summary of the method: as §1

[15] = system: cocklebur (Xanthium strumarium); assay: Test B preemergence
Summary of the method: as §1

corn (Zea mays) [16] = assay: Test B preemergence
Summary of the method: as §1

[17] = system: crabgrass (Digitaria sanguinalis); assay: Test B preemergence
Summary of the method: as §1

[18] = system: giant foxtail (Setaria faberii); assay: Test B preemergence
Summary of the method: as §1

[19] = system: lambsquarters (Chenopodium album); assay: Test B preemergence
Summary of the method: as §1

[20] = system: morning glory (Ipomoea hederacea); assay: Test B preemergence
Summary of the method: as §1

[21] = system: pigweed (Amaranthus retroflexus); assay: Test B preemergence
Summary of the method: as §1

rice (Oryza saliva) = assay: Test B preemergence
Summary of the method: as §1

[22] = system: velvetleaf (Abutilon theophrasti); assay: Test B preemergence
Summary of the method: as §1

[23] = system: smallflower flatsedge (Cyperus difformis); assay: Test C flooded paddy test; conditions: for Flatsedge plant response rating: Flooded Paddy, scale 0 to 100, 0 no effect, 100 complete control; for Plant response rating, Flatsedge: flooded paddy test, scale 0 to 100 (0 no effect, 100 complete control)
Summary of the method: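 Each species was cultivated to 2 leaves in flooded paddy pots, then treated. After a greenhouse period of 12–14 days, the plants were scored visually relative to controls from 0 (no effect) to 100 (complete control).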

Sunflower [24] = assay: Test C preemergence; conditions: Rate 500 g/ha, visual evaluation after 12 to 14 days
Sunflower [25] = assay: Test C preemergence; conditions: Rate 250 g/ha, scale 0 to 100, 0 no effect, 100 complete control
[26] = Rate 125 g/ha, scale 0 to 100, 0 no effect, 100 complete control
[27] = Rate 500 g/ha, scale 0 to 100, 0 is no effect, 100 is complete control, 13 to 15 days
[28] = Preemergence, Rate 500 g/ha, scale 0 to 100, 0 no effect, 100 complete control
[29] = preemergence, Rate 125 g/ha, scale of 0 to 100 where 0 is no effect and 100 is complete control, 13 to 15 days

## CCCC(C)c1ccn(C2CCN(c3ccc(Cl)c(OC)c3)C2=O)n1 (centres unmarked) [Compound 121]
[1]; [26]
  Plant response rating, Surinam grass: 30
[1]; [27]
  Plant response rating, Surinam grass: 40
[2]; [26]
  Plant response rating, Barnyardgrass: 0
[2]; [27]
  Plant response rating, Barnyardgrass: 90
[3]; [26]
  Plant response rating, Blackgrass: 0
[3]; [27]
  Plant response rating, Blackgrass: 0
[4]; [26]
  Plant response rating, Cocklebur: 70
[4]; [27]
  Plant response rating, Cocklebur: 100
Corn (Zea mays) [5]; [26]
  Plant response rating, Corn: 20
Corn (Zea mays) [5]; [27]
  Plant response rating, Corn: 30
[6]
  Plant response rating, Crabgrass: 30
[7]
  Plant response rating, Foxtail, Giant: 0
[8]
  Plant response rating, Lambsquarters: 80
[9]
  Plant response rating, Morningglory: 50
[10]
  Plant response rating, Pigweed: 50
[11]
  Plant response rating, Velvetleaf: 30
[12]
  Plant response rating, Wheat: 50
Wild oat (Avena fatua)
  Plant response rating, Wild Oat: 30
[13]; [28]
  Plant response rating, Surinam grass: 40
[13]; [29]
  Plant response rating, Surinam grass: 0
[14]; [28]
  Plant response rating, Barnyardgrass: 100
[14]; [29]
  Plant response rating, Barnyardgrass: 40
[15]; [28]
  Plant response rating, Cocklebur: 30
[15]; [29]
  Plant response rating, Cocklebur: 10
Corn (Zea mays) [16]; [28]
  Plant response rating, Corn: 50
Corn (Zea mays) [16]; [29]
  Plant response rating, Corn: 20
[17]; [28]
  Plant response rating, Crabgrass: 100
[17]; [29]
  Plant response rating, Crabgrass: 10
[18]; [28]
  Plant response rating, Foxtail, Giant: 100
[18]; [29]
  Plant response rating, Foxtail, Giant: 0
[19]; [28]
  Plant response rating, Lambsquarters: 100
[19]; [29]
  Plant response rating, Lambsquarters: 100
[20]; [28]
  Plant response rating, Morningglory: 30
[20]; [29]
  Plant response rating, Morningglory: 20
[21]; [28]
  Plant response rating, Pigweed: 100
[21]; [29]
  Plant response rating, Pigweed: 100
Rice (Oryza saliva); [28]
  Plant response rating, Rice: 0
Rice (Oryza saliva); [29]
  Plant response rating, Rice: 0
[22]; [28]
  Plant response rating, Velvetleaf: 20
[22]; [29]
  Plant response rating, Velvetleaf: 10
[23]; Rate 250 g/ha
  Flatsedge plant response rating: 100
[23]; Rate 500 g/ha
  Flatsedge plant response rating: 100
[23]; Rate 62 g/ha
  Plant response rating, Flatsedge: 100
[23]; Rate 125 g/ha
  Plant response rating, Flatsedge: 100
Sunflower [24]
  Plant response rating (0 to 100), Sunflower: 70
Sunflower [25]
  Plant response rating, Sunflower: 50

## CCC(C)Oc1cccc(N2CCC(n3ccc(C(C)(C)C)n3)C2=O)c1 (centres unmarked) [Compound 127]
[1]; [26]
  Plant response rating, Surinam grass: 0
[1]; [27]
  Plant response rating, Surinam grass: 0
[2]; [26]
  Plant response rating, Barnyardgrass: 0
[2]; [27]
  Plant response rating, Barnyardgrass: 0
[3]; [26]
  Plant response rating, Blackgrass: 0
[3]; [27]
  Plant response rating, Blackgrass: 0
[4]; [26]
  Plant response rating, Cocklebur: 0
[4]; [27]
  Plant response rating, Cocklebur: 60
Corn (Zea mays) [5]; [26]
  Plant response rating, Corn: 0
Corn (Zea mays) [5]; [27]
  Plant response rating, Corn: 0
[6]
  Plant response rating, Crabgrass: 0
[7]
  Plant response rating, Foxtail, Giant: 0
[8]
  Plant response rating, Lambsquarters: 30
[9]
  Plant response rating, Morningglory: 0
[10]
  Plant response rating, Pigweed: 0
[11]
  Plant response rating, Velvetleaf: 0
[12]
  Plant response rating, Wheat: 0
Wild oat (Avena fatua)
  Plant response rating, Wild Oat: 0
[13]; [28]
  Plant response rating, Surinam grass: 70
[13]; [29]
  Plant response rating, Surinam grass: 0
[14]; [28]
  Plant response rating, Barnyardgrass: 100
[14]; [29]
  Plant response rating, Barnyardgrass: 0
[15]; [28]
  Plant response rating, Cocklebur: 0
[15]; [29]
  Plant response rating, Cocklebur: 0
Corn (Zea mays) [16]; [28]
  Plant response rating, Corn: 0
Corn (Zea mays) [16]; [29]
  Plant response rating, Corn: 0
[17]; [28]
  Plant response rating, Crabgrass: 100
[17]; [29]
  Plant response rating, Crabgrass: 100
[18]; [28]
  Plant response rating, Foxtail, Giant: 100
[18]; [29]
  Plant response rating, Foxtail, Giant: 70
[19]; [28]
  Plant response rating, Lambsquarters: 100
[19]; [29]
  Plant response rating, Lambsquarters: 90
[20]; [28]
  Plant response rating, Morningglory: 0
[20]; [29]
  Plant response rating, Morningglory: 0
[21]; [28]
  Plant response rating, Pigweed: 100
[21]; [29]
  Plant response rating, Pigweed: 0
Rice (Oryza saliva); [28]
  Plant response rating, Rice: 50
Rice (Oryza saliva); [29]
  Plant response rating, Rice: 0
[22]; [28]
  Plant response rating, Velvetleaf: 0
[22]; [29]
  Plant response rating, Velvetleaf: 0
[23]; Rate 250 g/ha
  Flatsedge plant response rating: 80
[23]; Rate 500 g/ha
  Flatsedge plant response rating: 90
[23]; Rate 62 g/ha
  Plant response rating, Flatsedge: 0
[23]; Rate 125 g/ha
  Plant response rating, Flatsedge: 0
Sunflower [24]
  Plant response rating (0 to 100), Sunflower: 0
Sunflower [25]
  Plant response rating, Sunflower: 0
